Laboratory results: ChEMBL document CHEMBL1201862, “PubChem BioAssay data set” (2004)
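Results reflect a 48-hour exposure of cells in 96-well plates to compound at five concentrations. GI50 is the concentration that inhibits growth by half.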 Activity calls are given as the source filed them. No stated cut-off is given here; in the data, active = GI50 up to about 1.1 µM and inactive = higher.

How the values were obtained:
Experiment in all cases: NCI tumour cell line growth inhibition, 48 h
[1] = test system: A498
[2] = test system: EKVX
[3] = test system: HCT-116
[4] = test system: HL-60
[5] = test system: M14
[6] = test system: MOLT-4
[7] = test system: NCI-H522
[8] = test system: OVCAR-3
[9] = test system: OVCAR-4
[10] = test system: RPMI-8226
[11] = test system: SF-539
[12] = test system: SR
[13] = test system: TK-10
[14] = test system: UACC-257
[15] = test system: UACC-62
[16] = test system: UO-31
[17] = test system: DU-145
[18] = test system: MDA-N
[19] = test system: PC-3

Measured: GI50

COc1cc2c(c(OC)c1OC)C(=O)NCCC2
inactive: [1] > 100 µM | [2] > 100 µM | [3] > 100 µM | [4] > 63.1 µM | [5] > 100 µM | [6] > 100 µM | [7] > 100 µM | [8] > 100 µM | [9] > 100 µM | [10] > 100 µM | [11] > 100 µM | [12] > 100 µM | [13] > 100 µM | [14] > 100 µM | [15] > 100 µM | [16] > 100 µM

COc1ccccc1-n1c(N)c2c(C)c(-c3ccccc3)[nH]c2nc1=S
inactive: [1] > 100 µM | [3] > 100 µM | [4] > 100 µM | [5] > 100 µM | [6] > 100 µM | [7] > 100 µM | [8] > 100 µM | [9] > 100 µM | [10] 50.2 µM | [11] 33.7 µM | [12] > 100 µM | [13] > 100 µM | [14] > 100 µM | [15] 77.1 µM | [16] > 100 µM

COc1ccc(OC2(c3cc(OC)ccc3OC)OC(=O)c3ccccc32)cc1 (stereo unspecified)
inactive: [1] > 100 µM | [2] > 100 µM | [3] > 100 µM | [4] > 100 µM | [5] > 100 µM | [6] > 100 µM | [7] > 100 µM | [8] > 100 µM | [9] > 100 µM | [10] > 100 µM | [11] > 100 µM | [12] > 100 µM | [13] > 100 µM | [14] > 100 µM | [15] > 100 µM | [16] > 100 µM

CCOC(OC1=C(C#N)CCCC1)C(C)[Se]c1ccccc1 (stereo unspecified)
inactive: [1] > 100 µM | [2] 28.7 µM | [3] 30.1 µM | [4] 17.3 µM | [5] 28.9 µM | [6] 29 µM | [7] 16 µM | [8] 31.6 µM | [9] 21.7 µM | [10] 28.3 µM | [11] 18.1 µM | [12] 20.7 µM | [13] > 100 µM | [14] 74.6 µM | [15] 19.2 µM | [16] 43.6 µM

CN1CCCCC(C#N)(c2ccccc2)CC1 (stereo unspecified)
inactive: [1] > 100 µM | [17] > 100 µM | [2] > 100 µM | [3] > 100 µM | [4] > 100 µM | [5] > 100 µM | [18] > 100 µM | [6] > 100 µM | [9] > 100 µM | [19] > 100 µM | [10] > 100 µM | [12] > 100 µM | [13] > 100 µM | [14] > 100 µM | [16] > 100 µM

C=C(C)[C@@]1(O[Si](C)(C)C)CCCC[C@@H]1CC(Sc1ccccc1)Sc1ccccc1
inactive: [1] 19.9 µM | [17] 15 µM | [2] 17.6 µM | [4] 16.7 µM | [5] 14.9 µM | [18] 15.4 µM | [6] 4.89 µM | [7] 7.83 µM | [8] 14.1 µM | [9] 12.6 µM | [19] 13.2 µM | [10] 16.9 µM | [11] 10.2 µM | [12] 11.1 µM | [13] 15.4 µM | [14] 15.3 µM | [15] 13.2 µM | [16] 13.8 µM
